Consider 21 molecules from patent US11104664B2, “4,5,6-trisubstituted indazole derivatives, and preparation method and pharmaceutical use thereof” (SHANGHAI HAIYAN PHARMACEUTICAL TECHNOLOGY CO., LTD., priority 2016, dated 2021).

By IC50 is commonly meant the point on the concentration scale where inhibition reaches its midpoint.

For assay [1], the target named is Recombinant PRC2 (EZH2-Y641F) (Homo sapiens (Human), UniProt Q15910, Y641F). The assay is described as follows: In vitro methyltransferase activity assay (LANCE Ultra). The following applies: for IC50: 2.5 μM SAM/250 nM H3(1-50)K27me1, 3 hours, room temperature; for inhibitory activity against the enzyme (in words): SAR comment on Table 1, reduced relative to comparator compounds (P-7, P-13/14). It counts as biochemical. As to the method: Recombinant PRC2 (EZH2-Y641F) was purchased from Active motif, S-adenosyl-methionine (SAM) and Poly-L-lysine (PLL) were purchased from Sigma-Aldrich, and H3(1-50)K27me1 peptide was purchased from Cisbio. LANCEUltrasystem (Perkinelmer) was used for detection system. In the enzyme activity test, compounds to be tested were diluted by 8 gradient points in a ratio of 1:3, and added into each well in a reaction plate, and 100 ng recombinase was added, followed by a buffer [20 mM Tris pH8.5, 2 mM MgCl2, 0.01% Tween-20, 1 mM TCEP] containing 2.5 μM SAM/250 nM H3 (1-50)K27me1 premixtures. Enzymatic reaction thus began at room temperature. After reacted for 3 hours, a detection solution premixed with PLL, detection antibody and Ulight was added, and reacted for 1 hour at room temperature. The fluorescence value was then read on a Tecan infinite pro. IC50 was calculated by fitting in a four-factor model in the XLfit software.
A general note: TR-FRET usually uses a lanthanide donor and a delayed reading to cut background.

The test system of assay [2] is Pfeiffer cells. The assay is described as follows: Cell proliferation assay (Cell counting kit-8, 6 days). It counts as cell-based. The following applies: Pfeiffer (CRL-2632), 6 days culture. As to the method: The used cell lines Pfeiffer (CRL-2632), suDHL-6 (CRL-2959) and suDHL-10 (CRL-2963) were obtained from American Type Culture Collection (ATCC). All cell lines were cultured in RPMI-1640 medium (Gibco) containing 10% fetal bovine serum (Gibco). The cultured cells were harvested by centrifugation and the cell density was determined using a CounterStar cell counter. Appropriate number of cells were plated in a 96-well culture plate and incubated overnight. Compounds to be tested were diluted by 8 gradient points in a ratio of 1:3 and added into corresponding wells. After continuing to culture for 6 days, the number of viable cells was measured with Cell counting kit-8, and the absorbance value was read on Tecan infinite pro. The IC50 was calculated by fitting in a four-parameter model in the XLfit software.
(Tetrazolium dyes change colour on reduction, which living cells bring about.)

Chain of Recombinant PRC2 (EZH2-Y641F) (Q15910 whole entry Y641F): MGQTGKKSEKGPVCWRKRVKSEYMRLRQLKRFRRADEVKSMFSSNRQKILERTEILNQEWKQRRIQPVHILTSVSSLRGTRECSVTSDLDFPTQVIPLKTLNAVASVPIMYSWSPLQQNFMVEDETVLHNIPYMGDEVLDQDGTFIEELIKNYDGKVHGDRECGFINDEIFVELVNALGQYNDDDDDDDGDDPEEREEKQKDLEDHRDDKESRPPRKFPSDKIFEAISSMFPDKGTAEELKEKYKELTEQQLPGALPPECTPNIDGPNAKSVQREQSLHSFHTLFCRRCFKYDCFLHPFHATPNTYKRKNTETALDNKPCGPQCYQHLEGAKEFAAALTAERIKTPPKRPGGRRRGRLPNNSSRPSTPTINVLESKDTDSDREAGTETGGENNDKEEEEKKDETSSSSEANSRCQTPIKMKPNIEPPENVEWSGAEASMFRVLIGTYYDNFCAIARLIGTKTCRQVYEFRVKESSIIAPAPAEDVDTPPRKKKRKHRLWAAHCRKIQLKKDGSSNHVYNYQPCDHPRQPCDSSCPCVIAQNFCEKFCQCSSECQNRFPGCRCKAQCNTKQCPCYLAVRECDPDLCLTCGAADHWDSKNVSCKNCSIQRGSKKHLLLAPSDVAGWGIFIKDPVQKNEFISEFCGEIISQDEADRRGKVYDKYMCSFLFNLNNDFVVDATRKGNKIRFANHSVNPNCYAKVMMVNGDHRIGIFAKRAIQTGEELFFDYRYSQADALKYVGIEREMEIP
Chain of Recombinant PRC2 (EZH2-Y641F) (O75530 whole entry partner): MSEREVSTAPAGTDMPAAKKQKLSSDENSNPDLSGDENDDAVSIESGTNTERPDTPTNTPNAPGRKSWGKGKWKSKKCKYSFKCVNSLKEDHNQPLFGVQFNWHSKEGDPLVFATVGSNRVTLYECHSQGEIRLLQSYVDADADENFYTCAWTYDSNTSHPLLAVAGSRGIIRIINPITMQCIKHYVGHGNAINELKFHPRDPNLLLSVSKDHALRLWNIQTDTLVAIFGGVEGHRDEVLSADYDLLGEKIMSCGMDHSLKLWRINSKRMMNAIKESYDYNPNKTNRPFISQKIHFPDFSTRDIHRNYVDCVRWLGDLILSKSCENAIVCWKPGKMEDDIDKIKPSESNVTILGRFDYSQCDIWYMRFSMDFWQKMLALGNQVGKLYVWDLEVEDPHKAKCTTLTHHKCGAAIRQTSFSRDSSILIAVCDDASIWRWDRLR
Chain of Recombinant PRC2 (EZH2-Y641F) (Q15022 whole entry partner): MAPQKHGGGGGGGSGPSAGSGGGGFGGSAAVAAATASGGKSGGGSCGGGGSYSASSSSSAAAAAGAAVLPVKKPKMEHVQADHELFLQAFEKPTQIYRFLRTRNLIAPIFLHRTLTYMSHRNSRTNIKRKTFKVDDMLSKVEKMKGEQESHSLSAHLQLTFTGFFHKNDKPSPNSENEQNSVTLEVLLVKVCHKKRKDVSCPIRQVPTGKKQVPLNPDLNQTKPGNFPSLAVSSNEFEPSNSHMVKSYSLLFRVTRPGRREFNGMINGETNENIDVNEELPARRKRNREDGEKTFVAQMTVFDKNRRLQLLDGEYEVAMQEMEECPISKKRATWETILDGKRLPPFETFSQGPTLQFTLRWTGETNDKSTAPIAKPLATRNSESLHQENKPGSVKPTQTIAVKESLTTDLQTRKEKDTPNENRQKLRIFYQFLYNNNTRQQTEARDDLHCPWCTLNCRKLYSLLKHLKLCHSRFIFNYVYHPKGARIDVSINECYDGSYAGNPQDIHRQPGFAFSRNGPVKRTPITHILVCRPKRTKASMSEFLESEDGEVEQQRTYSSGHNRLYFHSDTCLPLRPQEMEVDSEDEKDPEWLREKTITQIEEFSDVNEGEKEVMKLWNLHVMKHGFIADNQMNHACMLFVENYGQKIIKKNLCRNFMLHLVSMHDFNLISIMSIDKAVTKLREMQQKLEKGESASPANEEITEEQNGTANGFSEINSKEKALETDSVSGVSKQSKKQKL
Chain of Recombinant PRC2 (EZH2-Y641F) (Q09028 whole entry partner): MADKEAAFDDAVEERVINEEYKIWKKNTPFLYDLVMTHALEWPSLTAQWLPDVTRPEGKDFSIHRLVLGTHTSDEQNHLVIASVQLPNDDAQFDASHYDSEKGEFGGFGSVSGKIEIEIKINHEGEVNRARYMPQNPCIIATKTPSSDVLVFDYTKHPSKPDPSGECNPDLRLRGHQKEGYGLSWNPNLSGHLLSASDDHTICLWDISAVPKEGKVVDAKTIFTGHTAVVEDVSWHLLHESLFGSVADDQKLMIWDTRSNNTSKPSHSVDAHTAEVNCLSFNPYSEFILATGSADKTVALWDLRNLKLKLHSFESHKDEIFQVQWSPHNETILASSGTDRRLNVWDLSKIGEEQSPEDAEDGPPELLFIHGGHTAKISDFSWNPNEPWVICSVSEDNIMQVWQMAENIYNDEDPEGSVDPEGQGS
Chain of Recombinant PRC2 (EZH2-Y641F) (Q6ZN18 whole entry partner): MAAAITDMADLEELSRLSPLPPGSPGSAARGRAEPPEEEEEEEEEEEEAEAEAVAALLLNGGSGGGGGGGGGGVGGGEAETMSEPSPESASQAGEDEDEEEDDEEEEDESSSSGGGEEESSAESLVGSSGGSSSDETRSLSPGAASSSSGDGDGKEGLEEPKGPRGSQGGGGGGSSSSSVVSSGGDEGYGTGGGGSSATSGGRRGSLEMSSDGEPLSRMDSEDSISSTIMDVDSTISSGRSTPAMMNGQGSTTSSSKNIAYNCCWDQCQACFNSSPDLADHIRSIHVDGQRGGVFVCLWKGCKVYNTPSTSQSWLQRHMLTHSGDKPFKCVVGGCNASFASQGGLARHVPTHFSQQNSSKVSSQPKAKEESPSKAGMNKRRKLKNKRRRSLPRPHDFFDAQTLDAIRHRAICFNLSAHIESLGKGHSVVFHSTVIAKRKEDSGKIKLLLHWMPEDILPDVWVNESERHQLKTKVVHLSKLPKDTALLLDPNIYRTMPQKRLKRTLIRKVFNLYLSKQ

As to “7-(ethyl(tetrahydro-2H-pyran-4-yl)amino)-N-((4-methoxy-6-methyl-2-oxo-1,2-dihydropyridin-3-yl)methyl)-1,6-dimethyl-1H-imidazole-5-carboxamide [P-4]”, in assay [1], the IC50 is 502 nM and the “inhibitory activity against the enzyme (in words)” value (from here on “inhibitory activity”) was “significantly reduced”. As for `CCN(c1cc(C(=O)NCc2c(C)cc(C)[nH]c2=O)c(C)c2c1cnn2C)C1CCOCC1` [D1, N-((4,6-dimethyl-2-oxo-1,2-dihydropyridin-3-yl)methyl)-4-(ethyl(tetrahydro-2H-pyran-4-yl)amino)-1,7-dimethyl-1H-indazole-6-carboxamide, reference compound], the half-inhibitory concentration (IC50) in assay [1] is over 10000 nM; in assay [2] (Homo sapiens, 144 h), over 10000 nM. For the molecule `CCN(c1c(C)c(C(=O)NCc2c(OC)cc(C)[nH]c2=O)cc2c1cnn2C)C1CCOCC1` [P-1, 4-(ethyl (tetrahydro-2H-pyran-4-yl)amino)-N-((4-methoxy-6-methyl-2-oxo-1,2-dihydropyridin-3-yl)methyl)-1,5-dimethyl-1H-indazole-6-carboxamide], the IC50 in assay [1] stood at 25 nM; in assay [2] (Homo sapiens, 144 h), 93 nM.

For `CCN(c1c(C)c(C(=O)NCc2c(OC)cc(C)[nH]c2=O)cc2[nH]ncc12)C1CCOCC1` [P-2, 4-(ethyl(tetrahydro-2H-pyran-4-yl)amino)-N-((4-methoxy-6-methyl-2-oxo-1,2-dihydropyridin-3-yl)methyl)-5-methyl-1H-indazole-6-carboxamide], in assay [1], the half-inhibitory concentration (IC50) worked out at 24 nM. Take `CCN(c1c(C)c(C(=O)NCc2c(OC)cc(C)[nH]c2=O)cc2cn[nH]c12)C1CCOCC1` [P-3, 7-(ethyl(tetrahydro-2H-pyran-4-yl)amino)-N-((4-methoxy-6-methyl-2-oxo-1,2-dihydropyridin-3-yl)methyl)-6-methyl-1H-imidazole-5-carboxamide]: in assay [1], the concentration for half-maximal inhibition (IC50) amounted to 154 nM and the “inhibitory activity” value is recorded as “significantly reduced”. Consider `CCN(c1c(C)c(C(=O)NCc2c(OC)cc(C)[nH]c2=O)cc2c1cnn2C(F)F)C1CCOCC1` [P-5, 1-(difluoromethyl)-4-(ethyl(tetrahydro-2H-pyran-4-yl)amino)-N-((4-methoxy-6-methyl-2-oxo-1,2-dihydropyridin-3-yl)methyl)-5-methyl-1H-indazole-6-carboxamide], for which, in assay [2] (Homo sapiens, 144 h), half-maximal inhibition (IC50) was put at 71 nM.

In assay [2] (Homo sapiens, 144 h), `CCN(c1c(C)c(C(=O)NCc2c(C)cc(C)[nH]c2=O)cc2c1cnn2C)C1CCOCC1` [P-7, N-((4,6-dimethyl-2-oxo-1,2-dihydropyridin-3-yl)methyl)-4-(ethyl(tetrahydro-2H-pyran-4-yl)amino)-1,5-dimethyl-1H-indazole-6-carboxamide] yielded an IC50 of 158 nM. `CCN(c1c(C)c(C(=O)NCc2c(C)cc(C)[nH]c2=O)cc2c1cnn2C)C1CCN(CC(F)(F)F)CC1` [P-8, N-((4,6-dimethyl-2-oxo-1,2-dihydropyridin-3-yl)methyl)-4-(ethyl(1-(2,2,2-trifluoroethyl)piperidin-4-yl)amino)-1,5-dimethyl-1H-indazole-6-carboxamide]: the IC50 in assay [1] amounted to 53 nM. For the molecule `CCN(c1c(C)c(C(=O)NCc2c(C)cc(C)[nH]c2=O)cc2c1cnn2C)C1CCC(N(C)CCOC)CC1` (centres unmarked) [P-9, N-((4,6-dimethyl-2-oxo-1,2-dihydropyridin-3-yl)methyl)-4-(ethyl (4-((2-methoxyethyl)(methyl)amino)cyclohexyl)amino)-1,5-dimethyl-1H-indazole-6-carboxamide], the IC50 came out at 9 nM in assay [1] and 32 nM in assay [2] (Homo sapiens, 144 h).

Turning to `CCN(c1c(C)c(C(=O)NCc2c(C)cc(C)[nH]c2=O)cc2c1cnn2C(F)F)C1CCOCC1` [P-10, 1-(difluoromethyl)-N-((4,6-dimethyl-2-oxo-1,2-dihydropyridin-3-yl)methyl)-4-(ethyl(tetrahydro-2H-pyran-4-yl)amino)-5-methyl-1H-indazole-6-carboxamide], the IC50 worked out at 61 nM in assay [1] and 141 nM in assay [2] (Homo sapiens, 144 h). In the same order, the values of `CCN(c1c(C)c(C(=O)NCc2c(OC)cc(C)[nH]c2=O)cc2c1cnn2C)C1CCN(CC(F)(F)F)CC1` [P-11, 4-(ethyl(1-(2,2,2-trifluoroethyl)piperidin-4-yl)amino)-N-((4-methoxy-6-methyl-2-oxo-1,2-dihydropyridin-3-yl)methyl)-1,5-dimethyl-1H-indazole-6-carboxamide] are 13 nM and 292 nM. For the molecule `CCN(c1c(C)c(C(=O)NCc2c(OC)cc(C)[nH]c2=O)cc2nn(C)cc12)C1CCN(CC(F)(F)F)CC1` [P-12, 4-(ethyl(1-(2,2,2-trifluoroethyl)piperidin-4-yl)amino)-N-((4-methoxy-6-methyl-2-oxo-1,2-dihydropyridin-3-yl)methyl)-2,5-dimethyl-2H-indazole-6-carboxamide], the IC50 in assay [1] stood at 117 nM. With `CCN(c1c(C)c(C(=O)NCc2c(C)cc(C)[nH]c2=O)cc2c1cnn2C)[C@H]1CC[C@@H](N(C)C)CC1` [P-13, N-((4,6-dimethyl-2-oxo-1,2-dihydropyridin-3-yl)methyl)-4-(((1S, 4S)-4-(dimethylamino)cyclohexyl) (ethyl)amino)-1,5-dimethyl-1H-indazole-6-carboxamide], the 50% inhibitory concentration (IC50) in assay [1] stood at 23 nM. As to `CCN(c1c(C)c(C(=O)NCc2c(C)cc(C)[nH]c2=O)cc2c1cnn2C)[C@H]1CC[C@H](N(C)C)CC1` [P-14, N-((4,6-dimethyl-2-oxo-1,2-dihydropyridin-3-yl)methyl)-4-(((1R, 4R)-4-(dimethylamino)cyclohexyl)(ethyl)amino)-1,5-dimethyl-1H-indazole-6-carboxamide], the half-maximal inhibitory concentration (IC50) in assay [1] was determined as 5 nM; in assay [2], 212 nM. `CCN(c1c(C)c(C(=O)NCc2c(OC)cc(C)[nH]c2=O)cc2c1cnn2C)C1CCC(N(C)CCOC)CC1` (centres unmarked) [P-15, 4-(ethyl(4-((2-methoxyethyl) (methyl)amino)cyclohexyl)amino)-N-((4-methoxy-6-methyl-2-oxo-1,2-dihydropyridin-3-yl)methyl)-1,5-dimethyl-1H-indazole-6-carb oxamide]: the IC50 in assay [1] stood at 7 nM; in assay [2] (Homo sapiens, 144 h), 76 nM. `CCN(c1c(C)c(C(=O)NCc2c(C)cc(C)[nH]c2=O)cc2c1cnn2C)C1CCN(C2CCOCC2)CC1` [P-33]: the half-maximal inhibitory concentration (IC50) in assay [1] is 37 nM. For the molecule `CCN(c1c(C)c(C(=O)NCc2c(C)cc(C)[nH]c2=O)cc2c1cnn2CC1CCOC1)C1CCOCC1` (centres unmarked) [P-40], in assay [2] (Homo sapiens, 144 h), the 50% inhibitory concentration (IC50) was 268 nM. For the molecule `CCN(c1c(C)c(C(=O)NCc2c(C)cc(C)[nH]c2=O)cc2c1c(C)nn2C)C1CCC(N(C)C)CC1` (centres unmarked) [P-42], in assay [1], the IC50 is 253 nM and the “inhibitory activity” value is “greatly reduced”. Regarding `CCN(c1c(C)c(C(=O)NCc2c(C)cc(C)[nH]c2=O)cc2c1cnn2C)C1CCC(N(C)CC(F)F)CC1` (centres unmarked) [P-45, 4-((4-((2,2-difluoroethyl) (methyl)amino)cyclohexyl)(ethyl)amino)-N-((4,6-dimethyl-2-oxo-1,2-dihydropyridin-3-yl)methyl)-1,5-dimethyl-1H-indazole-6-carboxamide], the IC50 in assay [1] came to 27 nM.

As for `CCN(c1c(C)c(C(=O)NCc2c(C)cc(C)[nH]c2=O)cc2c1cnn2C)C1CCC(C)(N)CC1` (centres unmarked) [P-46], the 50% inhibitory concentration (IC50) in assay [1] was 53 nM. For the molecule `CCN(c1c(C)c(C(=O)NCc2c(OC)cc(C)[nH]c2=O)cc2nn(C)cc12)C1CCOCC1` [P-50, 4-(ethyl(tetrahydro-2H-pyran-4-yl)amino)-N-((4-methoxy-6-methyl-2-oxo-1,2-dihydropyridin-3-yl)methyl)-2,5dimethyl-2H-indazole-6-carboxamide], in assay [1], the half-inhibitory concentration (IC50) was found to be 148 nM and the “inhibitory activity” value was “significantly reduced”.
